A short description of data set [1]: MTT cytotoxicity assay, HCT116. The conditions noted are these: human.
Description: (§1) All cellular lines were grown at 37° C. and 5% CO2 in supplemented Dulbecco's modified Eagle's medium (DMEM) (Cambrex Co., Barcelona, Spain), containing 10% heat-inactivated fetal bovine serum (FBS) (Cambrex Co., Barcelona, Spain), 2 mM glutamine, penicillin (50 U/ml) and streptomycin (50 mg/ml).
(§2) Aliquots of cell suspensions were dispensed at 100 μl volumes into wells of 96-well tissue culture plates at a density of 10^4 cells/well. […] In each MTT assay, every concentration of the assayed substance was tested in three replicates. The inhibitory effect of the various compounds was calculated as percentage inhibition relative to cells treated with vehicle (0.5% DMSO).
Data set [2] in a line: MTT cytotoxicity assay, 3T3-L1. As to conditions: mouse. (Tetrazolium assays rely on reduction of a dye to a coloured formazan, in cell work by metabolically active cells.)
Description: All cellular lines were grown at 37° C. and 5% CO2 in supplemented Dulbecco's modified Eagle's medium (DMEM) (Cambrex Co., Barcelona, Spain), containing 10% heat-inactivated fetal bovine serum (FBS) (Cambrex Co., Barcelona, Spain), 2 mM glutamine, penicillin (50 U/ml) and streptomycin (50 mg/ml). […] MSC were maintained in α-MEM with 15% FBS.
as §2
The nature of data set [3]: MTT cytotoxicity assay, MDA. The conditions noted are these: human.
Description: as §1, §2
Data set [4] can be described thus: MTT cytotoxicity assay, HeLa. The conditions noted are these: human.
Description: as §1, §2
Data set [5] in a line: MTT cytotoxicity assay, T47D. The conditions noted are these: human.
Description: as §1, §2
Data set [6] is described as follows: MTT cytotoxicity assay, AGS. As to conditions: human.
Description: as §1, §2
Data set [7] relates to 3T3-L1 fibroblasts. Description: 3T3-L1 adipocyte differentiation assay / total triglyceride quantification.
Description: The 3T3-L1 preadipocyte cell line was plated at a concentration of 2×10^5 cell/well in 6-well plates for RNA isolations and tygliceride cunatification. 3T3-L1 fibroblasts were grown until confluence (3 days) in DMEM with 10% FBS and antibiotics. Then (day 0), medium was supplemented with 1 μM dexamethasone, IBMX 0.5 mM and 10 μg/ml insulin, to induce differentiation for 2 days. In day 2, the medium was supplemented only with 5 μg/ml insulin for two more days. All mediums used were additionally supplemented with cannabinoids, or rosiglitazone (1 μM) as control, since day 0. […] For trygliceride cuantification, cells were maintained in medium supplemented with cannabinoids until day 12 and refreshed every two days. […] 3T3-L1 fully differentiated adipocytes were washed in PBS and sonicated three times for 5 seconds in a buffer containing 2 M NaCl, 2 mM EDTA and 50 mM sodium phosphate pH 7.4 to release cellular content. Total triglyceride content released was quantified using a commercial Triglyceride Assay kit (Applied BioSystem, Spain) based on a colorimetric reaction and measured by absorbance at 500 nm in a spectrophotometer.
Data set [8] has as its system T47D, human breast adenocarcinoma. Description: MTT cytotoxicity assay, T47D. As to conditions: read-out: IC50 values of MTT cytotoxicity assay; T47D, 24 hours of treatment.
Description: as §1, §2
Data set [9] relates to 3T3-L1 pre-adipocytes. Description: Glucose uptake (2-deoxy-D-glucose transport). The class given is cell-based, mouse. The conditions noted are these: FIG. 6; for glucose uptake: presence and absence of insulin (1.74 μM). As to the method: For assays of 2-deoxy-D-glucose transport 3T3-L1 pre-adipocytes cultured in 12-well plates were deprived of serum by incubation for 2 hours. […] Glucose transport was initiated by the addition of 50 μl of KRH buffer containing 0.5 mM 2-deoxy-D-[1, 2-3H]glucose (0.25 μCi) to each well; after 5 minutes, transport was terminated by washing the cells 3 times with ice-cold KRH buffer. The cells were solubilized, and the incorporated radioactivity was measured by liquid scintillation counting.
Data are given as means with deviation standard error bars of three replicates. […]

The subject of data set [10] is adipokines gene expression (IL-6, AdipoQ). The data set is described as follows: Adipocyte and adipokine gene expression by PCR in 3T3-L1 adipocytes. As to conditions: FIG. 5.
Description: 3T3-L1 fibroblasts were grown until confluence (3 days) in DMEM with 10% FBS and antibiotics. Then (day 0), medium was supplemented with 1 μM dexamethasone, IBMX 0.5 mM and 10 μg/ml insulin, to induce differentiation for 2 days. In day 2, the medium was supplemented only with 5 μg/ml insulin for two more days. All mediums used were additionally supplemented with cannabinoids, or rosiglitazone (1 μM) as control, since day 0. In case of RNA extractions, cells were harvested on day 4. […] GAPDH gene was used as houskeeping gene.
In data set [11] the test system is bone-marrow derived mesenchimal cells. The data set is described as follows: Mesenchymal stem cell differentiation to osteoblasts or adipocytes, marker gene expression by QRT-PCR. The class given is cell-based. As to conditions: human MSC, compounds in differentiation medium, FIG. 7. As to the method:
Cells were plated at 500 cell/cm^2 on P6 plates (TPP, Trasadingen, Switzerland) containing α-MEM medium with 10% FBS. When the cell cultures were 80-90% confluent, the medium was supplemented with 10^−8 M dexamethasone, 0.2 mM ascorbic acid and 10 mM β-glycerolphosphate to induce differentiation to osteoblasts, and 5×10^−7 M dexamethasone, 0.5 mM isobutylmethylxanthine and […] indometacin to induce differentiation to adipocytes. All inducers were from Sigma-Aldrich. MSC (mesenchymal stem cells) were grown in an osteogenic or adipogenic medium for 21 days, together with a corresponding control (in the absence of differentiation inducers). Cell samples were collected at day 13. […] Expression values of nuclear ribosomal DNA were used to normalise the obtained values. Adipocyte and osteoblasts were obtained by differentiation of human mesenchymal stem cells grown in adipogenic or osteoblastogenic specific differentiation culture mediums. […] Bone forming osteoblasts and fat forming adipocytes are both derived from mesenchymal stem cells (MSCs). An increase in PPARg activity due to treatment with the antidiabetic thiazolidinedione (TZD) drug rosiglitazone results in a decreased number of osteoblasts and an increased number of adipocytes.

Setting [12] is: HCT116 cells (human colon carcinoma).
Where [13] appears, read: 3T3-L1 cells (mouse embryonic fibroblast, adipose-like).
[14] abbreviates: MDA cells (human breast cancer).
[15] abbreviates: HeLa cells (human cervical carcinoma).
[16] abbreviates: T47D cells (human breast adenocarcinoma).
[17] abbreviates: AGS cells (human gastric adenocarcinoma).

In general, IC50 refers to the concentration at which inhibition is half-maximal.

Turning to `C=C(C)[C@@H]1CCC(C)=C[C@H]1c1c(O)cc(CCCCC)cc1O` [CBD, cannabidiol], the IC50 at 24 h in [1] (setting [12]) was greater than 50 µM; in data set [2] (setting [13]), 30 µM; in data set [3] (setting [14]) it was greater than 50 µM; in [4] (setting [15]), greater than 50 µM; in data set [5] (setting [16]), 35 µM; in [6] (setting [17]), 25 µM.
On to `C=C(C)C1CCC(C)=C[C@H]1C1=C(O)C(=O)C(CCCCC)=CC1=O` (some centres unmarked) [CBD-Q, CBD-Quinone], for which the IC50 at 24 h amounted to 9.8 µM in data set [1]; 12 µM in data set [2]; 10.1 µM in data set [3]; 40.5 µM in data set [4]; 20 µM in data set [5] (IC50 values of MTT cytotoxicity assay, T47D, 24 hours of treatment); 7.44 µM in data set [6]. Further, the “cytotoxic effect in adipocyte differentiation assay, concentration” value in data set [7] (3T3-L1, FIG. 8C, lacking bar) is recorded as “higher than 1 μM”. The IC50 in [8] came out at 17.1 µM.
For the compound `CCCCCc1cc(O)c(C/C=C(\C)CCC=C(C)C)c(O)c1` [CBG, cannabigerol], the IC50 at 24 h in data set [1] (setting [12]) was greater than 50 µM; in [2] (setting [13]), 42.2 µM; in data set [3] (setting [14]) it was greater than 50 µM; in data set [4] (setting [15]), greater than 50 µM; in data set [5] (setting [16]), 47 µM; in [6] (setting [17]), greater than 50 µM. The glucose uptake result in data set [9] is “able to increment the glucosa uptake both in presence and absence of insulin”. Also, the AdipoQ gene expression result in data set [10] is “increment on AdipoQ”. Also, the IL-6 gene expression result in [10] is listed as “reduction of the pro-inflammatory cytokine IL-6”.
On to `CCCCCC1=CC(=O)C(C/C=C(\C)CCC=C(C)C)=C(O)C1=O` [CBG-Q, CBG Hydroxyquinone], for which the IC50 at 24 h in data set [1] was 47 µM; in data set [2], 49 µM; in data set [3] it was 49 µM; in [4], greater than 50 µM; in [5], 44 µM; in [6] it was 48 µM. Besides, the “differentiation of fibroblasts to adipocytes (total triglyceride), in words” value in [7] (3T3-L1, FIGS. 4 and 8C) is “stimulate the differentiation of fibroblasts to adipocytes in a stronger way than CBG”. For the same compound, the “glucose uptake compared with CBG” value in data set [9] (absence of insulin) is recorded as “higher effect than CBG”. Further, the glucose uptake result in [9] was “able to increment the glucosa uptake both in presence and absence of insulin”. Also, the “expression of marker genes in adipocytes and osteoblasts” value in data set [11] is recorded as “no significant alteration in expression of marker genes”. Besides, the AdipoQ gene expression entry in [10] is “increment on AdipoQ”. Further, the IL-6 gene expression entry in [10] was “reduction of the pro-inflammatory cytokine IL-6”.

These data come from patent US8772349B2, “Cannabinoid quinone derivatives” (Vivacell Biotechnology Espana, S.L., priority 2010, dated 2014).
